Experimental findings from patent US9976141B2, “Compositions and methods for inhibiting gene expression of Hif2alpha” (Arrowhead Madison Inc., priority 2015, dated 2018) are described below.

The data set has as its system human (tumor) Hif2α (EPAS1) mRNA. The experiment in a line: Hif2α knockdown in orthotopic RCC tumor bearing mice, single injection of RNAi trigger-delivery polymer conjugate, RT-qPCR (Table 7). As to conditions: RNAi trigger 80 μg, polymer 126 400 μg; single tail vein injection; relative to isotonic glucose. It is filed as in vivo. How it is done:
A pCR3.1 expression vector expressing the reporter gene secreted alkaline phosphatase (SEAP) under the CMV promoter was prepared by directional cloning of the SEAP coding sequence PCR amplified from Clontech's pSEAP2-basic vector. Convenient restriction sites were added onto primers used to amplify the SEAP coding sequence for cloning into the pCR3.1 vector (Invitrogen). The resultant construct pCR3-SEAP was used to create a SEAP-expressing A498 ccRCC cell line. Briefly, pCR3-SEAP plasmid was transfected into A498 ccRCC cells by electroporation following manufacturer's recommendation. Stable transfectants were selected by G418 resistance. Selected A498-SEAP clones were evaluated for SEAP expression and integration stability.
Female athymic nude mice were anesthetized with ˜3% isoflourane and placed in the right lateral decubitus position. A small, 0.5-1 cm, longitudinally abdominal incision in the left flank was made. Using a moist cotton swab, the left kidney was lifted out of the peritoneum and gently stabilized. Just before injection, a 1.0 ml syringe was filled with the cell/Matrigel mixture and a 27 gauge needle catheter was attached to the syringe tip. The filled syringe was then attached to a syringe pump (Harvard Apparatus, model PHD2000) and primed to remove air. The tip of a 27-gauge needle catheter attached to a syringe was inserted just below the renal capsule near the caudal pole and the tip of the needle was then carefully advanced cranially along the capsule 3-4 mm. A 10 μl aliquot of 2:1 (vol:vol) cell/matrigel mixture containing about 300,000 cells was slowly injected into the kidney parenchyma using a syringe pump. The needle was left in the kidney for 15-20 seconds to ensure the injection was complete. The needle was then removed from the kidney and a cotton swab was placed over the injection site for 30 seconds to prevent leakage of the cells or bleeding. The kidney was then gently placed back into the abdomen and the abdominal wall was closed. Serum was collected every 7-14 days after implantation to monitor tumor growth using a commercial SEAP assay kit. For most studies, tumor mice were used 5-6 weeks after implantation, when tumor measurements were typically around 4-8 mm.
RGD targeted HiF2α-RNAi trigger delivery conjugates. Delivery polymers were modified using RGD-PEG-HyNic, RGD-PEG-ACit-PNP, or RDG-PEG-FCitFP-TFP and PEG-dipeptide modifying agents. The indicated amount of polymer 126 or 100A polymer was modified with 8×PEG12-ACit-PABC-PNP/0.5× aldehyde-PEG24-FCit-PABC-PNP (with RGD mimic #1-PEG-HyNic using protocol #1) and the indicated amount of the indicated Hif2α RNAi trigger. Polymer 064 was modified according to protocol 7. Kidney RCC tumor-bearing mice were generated as described and treated with a single tail vein injection of isotonic glucose (G1) or the indicated Hif2α RNAi trigger-delivery polymer conjugate. Mice were euthanized at the indicated time after injection and total RNA was prepared from kidney tumor using Trizol reagent following manufacturer's recommendation. Relative HiF2α mRNA levels were determined by RT-qPCR as described below and compared to mice treated with delivery buffer (isotonic glucose) only.
In preparation for quantitative PCR, total RNA was isolated from tissue samples homogenized in TriReagent (Molecular Research Center, Cincinnati, Ohio) following the manufacturer's protocol. Approximately 500 ng RNA was reverse-transcribed using the High Capacity cDNA Reverse Transcription Kit (Life Technologies). For human (tumor) Hif2α (EPAS1) expression, pre-manufactured TaqMan gene expression assays for human Hif2α (Catalog #4331182) and CycA (PPIA) Catalog #: 4326316E) were used in biplex reactions in triplicate using TaqMan Gene Expression Master Mix (Life Technologies) or VeriQuest Probe Master Mix (Affymetrix). […]
In general terms: Quantitative PCR measures a nucleic acid by following its amplification.
With “AD01026 (antisense TAAAUCGUUACGUUGACAGTT; sense CUGUCAACGUAACGAUUUAT; Hif2alpha RNAi agent antisense strand; modified_base 2,4,8,10,12,14,16,18 /mod_base = “2′-deoxy-2′-fluoro corresponding nucleoside”; modified_base 3,5,7,9,11,13,15,17,19 /mod_base = “2′-O-methyl corresponding nucleoside”; modified_base 6 /mod_base = “2′-3′ seco corresponding nucleotide”; modified_base 21 /mod_base = “5′-phosphorothioate corresponding nucleotide”; Hif2alpha RNAi agent sense strand; modified_base 1,3,5,7,9,11,13,15,17,19 /mod_base = “2′-deoxy-2′-fluoro corresponding nucleoside”; modified_base 2,4,6,8,10,12,14,16,18 /mod_base = “2′-O-methyl corresponding nucleoside”; modified_b)”, the “Relative Expression day 4 (Hif2α mRNA in kidney tumor)” value is recorded as 0.97.
Then “AD01027 (antisense TAAAUCGUUACGUUGACAGTT; sense CUGUCAACGUAACGAUUUAT; Hif2alpha RNAi agent antisense strand; modified_base 2,4,6,8,10,12,14,16,18 /mod_base = “2′-deoxy-2′-fluoro corresponding nucleoside”; modified_base 3,5,9,11,13,15,17,19 /mod_base = “2′-O-methyl corresponding nucleoside”; modified_base 7 /mod_base = “2′-3′ seco corresponding nucleotide”; modified_base 21 /mod_base = “5′-phosphorothioate corresponding nucleotide”; Hif2alpha RNAi agent sense strand; modified_base 1,3,5,7,9,11,13,15,17,19 /mod_base = “2′-deoxy-2′-fluoro corresponding nucleoside”; modified_base 2,4,6,8,10,12,14,16,18 /mod_base = “2′-O-methyl corresponding nucleoside”; modified_b)”, with 0.92; and “AD01028 (antisense TAAAUCGUUACGUUGACAGTT; sense CUGUCAACGUAACGAUUUAT; Hif2alpha RNAi agent antisense strand; modified_base 2,4,6,8,10,12,14,16,18 /mod_base = “2′-deoxy-2′-fluoro corresponding nucleoside”; modified_base 3,5,7,9,11,13,15,17,19 /mod_base = “2′-O-methyl corresponding nucleoside”; modified_base 21 /mod_base = “5′-phosphorothioate corresponding nucleotide”; Hif2alpha RNAi agent sense strand; modified_base 1,3,5,7,9,11,13,15,17,19 /mod_base = “2′-deoxy-2′-fluoro corresponding nucleoside”; modified_base 2,4,6,8,10,12,14,16,18 /mod_base = “2′-O-methyl corresponding nucleoside”; modified_base 20 /mod_base = “3′-3′-linked nucleotide”; modified_base 1 /mo)”, with 0.39.
Consider “AD01029 (antisense TUUCAUGAAAUCGUUACGUTT; sense ACGUAACGAUUUCAUGAAAT; Hif2alpha RNAi agent antisense strand; modified_base 2,4,8,10,12,14,16,18 /mod_base = “2′-deoxy-2′-fluoro corresponding nucleoside”; modified_base 3,5,7,9,11,13,15,17,19 /mod_base = “2′-O-methyl corresponding nucleoside”; modified_base 6 /mod_base = “2′-3′ seco corresponding nucleotide”; modified_base 21 /mod_base = “5′-phosphorothioate corresponding nucleotide”; Hif2alpha RNAi agent sense strand; modified_base 1,3,5,7,9,11,13,15,17,19 /mod_base = “2′-deoxy-2′-fluoro corresponding nucleoside”; modified_base 2,4,6,8,10,12,14,16,18 /mod_base = “2′-O-methyl corresponding nucleoside”; modified_b)”, for which the “Relative Expression day 4 (Hif2α mRNA in kidney tumor)” value came out at 0.94.
The value for “AD01030 (antisense TUUCAUGAAAUCGUUACGUTT; sense ACGUAACGAUUUCAUGAAAT; Hif2alpha RNAi agent antisense strand; modified_base 2,4,6,8,10,12,14,16,18 /mod_base = “2′-deoxy-2′-fluoro corresponding nucleoside”; modified_base 3,5,9,11,13,15,17,19 /mod_base = “2′-O-methyl corresponding nucleoside”; modified_base 7 /mod_base = “2′-3′ seco corresponding nucleotide”; modified_base 21 /mod_base = “5′-phosphorothioate corresponding nucleotide”; Hif2alpha RNAi agent sense strand; modified_base 1,3,5,7,9,11,13,15,17,19 /mod_base = “2′-deoxy-2′-fluoro corresponding nucleoside”; modified_base 2,4,6,8,10,12,14,16,18 /mod_base = “2′-O-methyl corresponding nucleoside”; modified_b)” was 0.47; that for “AD01032 (antisense TAAGUUAAGCUCCCAUACATT; sense UGUAUGGGAGCUUAACUUAT; Hif2alpha RNAi agent antisense strand; modified_base 2,4,8,10,12,14,16,18 /mod_base = “2′-deoxy-2′-fluoro corresponding nucleoside”; modified_base 3,5,7,9,11,13,15,17,19 /mod_base = “2′-O-methyl corresponding nucleoside”; modified_base 6 /mod_base = “2′-3′ seco corresponding nucleotide”; modified_base 21 /mod_base = “5′-phosphorothioate corresponding nucleotide”; Hif2alpha RNAi agent sense strand; modified_base 1,3,5,7,9,11,13,15,17,19 /mod_base = “2′-deoxy-2′-fluoro corresponding nucleoside”; modified_base 2,4,6,8,10,12,14,16,18 /mod_base = “2′-O-methyl corresponding nucleoside”; modified_b)” was 1.00.
“AD01033 (antisense TAAGUUAAGCUCCCAUACATT; sense UGUAUGGGAGCUUAACUUAT; Hif2alpha RNAi agent antisense strand; modified_base 2,4,6,8,10,12,14,16,18 /mod_base = “2′-deoxy-2′-fluoro corresponding nucleoside”; modified_base 3,5,9,11,13,15,17,19 /mod_base = “2′-O-methyl corresponding nucleoside”; modified_base 7 /mod_base = “2′-3′ seco corresponding nucleotide”; modified_base 21 /mod_base = “5′-phosphorothioate corresponding nucleotide”; Hif2alpha RNAi agent sense strand; modified_base 1,3,5,7,9,11,13,15,17,19 /mod_base = “2′-deoxy-2′-fluoro corresponding nucleoside”; modified_base 2,4,6,8,10,12,14,16,18 /mod_base = “2′-O-methyl corresponding nucleoside”; modified_b)”: the “Relative Expression day 4 (Hif2α mRNA in kidney tumor)” value is 1.08.
